Experimental data reported in ChEMBL document CHEMBL1142390, “A set of phosphatase-inert "molecular rulers" to probe for bivalent mannose 6-phosphate ligand-receptor interactions” (Bioorg Med Chem Lett, 2008).

How the values were obtained:
[1] = target: Cation-independent mannose-6-phosphate receptor (Bos taurus) (UniProt P08169); experiment: Displacement of pentamannosyl phosphate bovine serum albumin from M6P/IGF2R
[2] = target: Cation-independent mannose-6-phosphate receptor (Bos taurus) (UniProt P08169); experiment: Displacement of pentamannosyl phosphate bovine serum albumin from M6P/IGF2R relative to M6P

Cation-independent mannose-6-phosphate receptor (Bos taurus), sequence (P08169 whole entry, looked up): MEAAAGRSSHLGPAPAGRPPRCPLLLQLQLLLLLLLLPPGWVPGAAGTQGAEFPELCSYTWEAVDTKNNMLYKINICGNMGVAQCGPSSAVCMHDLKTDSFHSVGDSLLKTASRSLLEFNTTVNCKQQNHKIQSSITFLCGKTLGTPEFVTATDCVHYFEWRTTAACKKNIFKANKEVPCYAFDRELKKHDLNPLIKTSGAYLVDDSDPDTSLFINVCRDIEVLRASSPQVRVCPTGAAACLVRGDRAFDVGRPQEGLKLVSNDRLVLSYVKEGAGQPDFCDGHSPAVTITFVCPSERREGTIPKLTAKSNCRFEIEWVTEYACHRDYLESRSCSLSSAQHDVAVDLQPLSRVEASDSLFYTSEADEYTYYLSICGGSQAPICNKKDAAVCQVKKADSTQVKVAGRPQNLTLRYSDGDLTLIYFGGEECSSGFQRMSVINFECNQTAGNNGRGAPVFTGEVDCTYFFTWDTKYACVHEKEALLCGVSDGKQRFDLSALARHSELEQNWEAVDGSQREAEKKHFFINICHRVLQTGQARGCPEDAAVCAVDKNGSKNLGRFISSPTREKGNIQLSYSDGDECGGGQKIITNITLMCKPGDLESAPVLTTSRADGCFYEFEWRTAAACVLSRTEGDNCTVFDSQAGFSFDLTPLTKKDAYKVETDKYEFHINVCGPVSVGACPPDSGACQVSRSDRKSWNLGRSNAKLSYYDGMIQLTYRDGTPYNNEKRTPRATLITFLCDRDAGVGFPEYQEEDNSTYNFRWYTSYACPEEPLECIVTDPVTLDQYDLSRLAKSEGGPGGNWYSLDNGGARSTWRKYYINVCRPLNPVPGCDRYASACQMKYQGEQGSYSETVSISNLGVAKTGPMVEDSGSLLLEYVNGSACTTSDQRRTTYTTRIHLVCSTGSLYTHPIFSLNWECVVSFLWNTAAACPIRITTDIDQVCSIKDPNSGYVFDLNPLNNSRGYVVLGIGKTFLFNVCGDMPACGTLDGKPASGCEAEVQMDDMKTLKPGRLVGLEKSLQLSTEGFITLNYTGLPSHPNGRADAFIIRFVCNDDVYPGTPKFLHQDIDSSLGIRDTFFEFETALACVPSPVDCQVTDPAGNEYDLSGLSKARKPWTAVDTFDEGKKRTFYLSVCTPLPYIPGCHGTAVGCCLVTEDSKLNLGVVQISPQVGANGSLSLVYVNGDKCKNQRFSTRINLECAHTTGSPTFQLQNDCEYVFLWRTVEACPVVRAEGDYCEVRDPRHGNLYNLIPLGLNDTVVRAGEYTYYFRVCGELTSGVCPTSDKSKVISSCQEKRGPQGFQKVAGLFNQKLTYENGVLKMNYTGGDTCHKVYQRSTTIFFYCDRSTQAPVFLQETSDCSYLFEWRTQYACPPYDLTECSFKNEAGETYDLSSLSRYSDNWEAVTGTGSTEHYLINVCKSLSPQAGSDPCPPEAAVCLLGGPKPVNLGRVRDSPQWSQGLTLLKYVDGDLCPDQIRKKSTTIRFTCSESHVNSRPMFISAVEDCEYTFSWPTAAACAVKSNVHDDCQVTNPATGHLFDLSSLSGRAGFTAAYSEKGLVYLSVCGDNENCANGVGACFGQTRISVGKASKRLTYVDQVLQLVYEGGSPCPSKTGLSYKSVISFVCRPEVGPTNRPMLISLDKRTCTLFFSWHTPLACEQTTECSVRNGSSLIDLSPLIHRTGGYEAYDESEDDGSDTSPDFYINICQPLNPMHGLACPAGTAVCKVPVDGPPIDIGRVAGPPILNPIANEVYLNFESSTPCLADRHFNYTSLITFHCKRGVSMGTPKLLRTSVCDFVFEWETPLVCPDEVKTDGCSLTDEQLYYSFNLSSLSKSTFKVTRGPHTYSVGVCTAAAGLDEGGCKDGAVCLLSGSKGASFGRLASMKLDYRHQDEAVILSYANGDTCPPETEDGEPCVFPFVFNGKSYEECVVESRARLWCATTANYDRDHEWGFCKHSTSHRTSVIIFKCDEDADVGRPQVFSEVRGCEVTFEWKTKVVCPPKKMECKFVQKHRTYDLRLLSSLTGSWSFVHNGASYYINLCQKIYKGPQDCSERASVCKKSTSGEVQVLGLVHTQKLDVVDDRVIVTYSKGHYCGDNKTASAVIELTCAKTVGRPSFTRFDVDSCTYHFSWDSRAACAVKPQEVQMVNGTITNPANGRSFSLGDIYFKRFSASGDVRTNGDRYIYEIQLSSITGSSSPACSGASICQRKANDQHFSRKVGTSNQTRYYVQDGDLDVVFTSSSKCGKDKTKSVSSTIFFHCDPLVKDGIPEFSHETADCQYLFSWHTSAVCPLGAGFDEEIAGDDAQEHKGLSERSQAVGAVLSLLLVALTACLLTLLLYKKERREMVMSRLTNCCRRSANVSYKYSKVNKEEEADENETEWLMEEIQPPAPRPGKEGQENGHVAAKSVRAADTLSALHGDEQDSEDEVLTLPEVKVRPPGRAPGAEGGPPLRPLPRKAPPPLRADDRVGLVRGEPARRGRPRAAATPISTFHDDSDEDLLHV

| Compound | IC50 [1] | relative binding affinity (RBA) [2] |
| --- | --- | --- |
| O=P(O)(O)OC[C@H]1O[C@@H](O)[C@H](O)[C@@H](O)[C@@H]1O | > 10 µM |  |
| O=P(O)(O)OC[C@H]1O[C@H](OCCCCCCCCCCCCO[C@H]2O[C@H](COP(=O)(O)O)[C@@H](O)[C@H](O)[C@@H]2O)[C@@H](O)[C@@H](O)[C@@H]1O | 3.7 µM | 3.02 |
| CC(=O)NCCCC[C@H](NC(=O)[C@@H](NC(C)=O)[C@@H](C)O[C@H]1O[C@H](CO)[C@@H](O)[C@H](O)[C@@H]1O[C@H]1O[C@H](COP(=O)(O)O)[C@@H](O)[C@H](O)[C@@H]1O)C(=O)N[C@H](C(N)=O)[C@@H](C)O[C@H]1O[C@H](CO)[C@@H](O)[C@H](O)[C@@H]1O[C@H]1O[C@H](COP(=O)(O)O)[C@@H](O)[C@H](O)[C@@H]1O | 1.8 µM | 144 |

Further molecules by falling IC50 [1], results first:

| IC50 [1] | relative binding affinity (RBA) [2] | Compound |
| --- | --- | --- |
| 20 µM | 13 | CC(=O)N[C@H](C(=O)N[C@@H](CCCCN)C(=O)N[C@H](C(N)=O)[C@@H](C)O[C@H]1O[C@H](CO)[C@@H](O)[C@H](O)[C@@H]1O[C@H]1O[C@H](COP(=O)(O)O)[C@@H](O)[C@H](O)[C@@H]1O)[C@@H](C)O[C@H]1O[C@H](CO)[C@@H](O)[C@H](O)[C@@H]1O[C@H]1O[C@H](COP(=O)(O)O)[C@@H](O)[C@H](O)[C@@H]1O |
| 11.5 µM |  | O=P(O)(O)OC[C@H]1OC(O)[C@@H](O)[C@@H](O)[C@@H]1O (stereo not given in full) |
| 0.09 µM | 2890 | CC(=O)N[C@H](C(=O)N[C@@H](CCCCNC(=O)c1ccccc1N)C(=O)N[C@H](C(N)=O)[C@@H](C)O[C@H]1O[C@H](CO)[C@@H](O)[C@H](O)[C@@H]1O[C@H]1O[C@H](COP(=O)(O)O)[C@@H](O)[C@H](O)[C@@H]1O)[C@@H](C)O[C@H]1O[C@H](CO)[C@@H](O)[C@H](O)[C@@H]1O[C@H]1O[C@H](COP(=O)(O)O)[C@@H](O)[C@H](O)[C@@H]1O |
